# Values quoted from earlier work, collected in patent US6541263B2, “Determination of corticosteroids in human plasma using micromass LC/MS/MS” (Euro-Celtique, S.A. Luxembourg, priority 2001, dated 2003).
# System: eosinophils
# Conditions: IL-5-mediated survival
smiles,measurement,value
C[C@]12CCC(=O)C=C1CC[C@@H]1[C@@H]2[C@@H](O)C[C@@]2(C)[C@H]1CC[C@]2(O)C(=O)CO [hydrocortisone],inhibition of IL-5-mediated eosinophil survival,dose-dependent inhibition
